Test [1] deals with T1, rat P2X2/3 (rat P2X3 co-expressed with rat P2X2) (Rattus norvegicus, UniProt P49653+P49654).
T1 sequence (P49654 1-397): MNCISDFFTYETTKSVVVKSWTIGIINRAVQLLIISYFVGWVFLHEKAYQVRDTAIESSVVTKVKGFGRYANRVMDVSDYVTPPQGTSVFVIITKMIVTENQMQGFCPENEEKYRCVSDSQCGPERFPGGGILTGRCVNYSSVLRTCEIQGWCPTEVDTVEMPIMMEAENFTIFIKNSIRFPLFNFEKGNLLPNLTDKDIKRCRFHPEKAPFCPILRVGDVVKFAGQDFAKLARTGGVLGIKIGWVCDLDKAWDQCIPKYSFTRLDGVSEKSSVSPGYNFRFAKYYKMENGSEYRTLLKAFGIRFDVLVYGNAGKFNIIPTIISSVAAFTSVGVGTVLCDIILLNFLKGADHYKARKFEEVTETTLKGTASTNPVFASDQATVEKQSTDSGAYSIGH
T1 sequence (P49653 1-472): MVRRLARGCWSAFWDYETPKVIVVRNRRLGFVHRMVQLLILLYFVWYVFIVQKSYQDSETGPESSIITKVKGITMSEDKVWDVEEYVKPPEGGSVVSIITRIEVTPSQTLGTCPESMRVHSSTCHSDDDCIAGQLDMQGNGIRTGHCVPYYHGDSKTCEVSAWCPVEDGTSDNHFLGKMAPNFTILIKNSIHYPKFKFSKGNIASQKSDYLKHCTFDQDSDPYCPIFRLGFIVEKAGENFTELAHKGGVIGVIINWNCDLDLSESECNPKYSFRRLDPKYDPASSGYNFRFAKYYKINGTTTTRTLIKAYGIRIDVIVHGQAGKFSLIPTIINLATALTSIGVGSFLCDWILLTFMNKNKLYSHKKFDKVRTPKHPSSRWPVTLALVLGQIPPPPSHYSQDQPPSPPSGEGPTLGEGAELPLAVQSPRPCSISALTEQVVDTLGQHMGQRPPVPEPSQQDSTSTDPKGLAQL
The test is described as follows: rat P2X2/3 FLIPR calcium (Fluo-4) antagonist assay. As to conditions: Rat P2X2/3 FLIPR Mean IC50 (nM), HEK-TREX cells, tetracycline-induced rat P2X3 with constitutive rat P2X2; agonist 500 nM α,β-methylene-ATP.
Experimental: The assay used a calcium indicator dye (Fluo-4) that emits fluorescence, the intensity of which is related to the concentration of calcium that entered the cell when P2X3 was activated and the channel opened. Activation of hP2X3 or rat P2X3 and rat P2X2/3 (from the coexpression of rat P2X3 and rat P2×2) is elicited the by P2X3 agonist α,β methylene-ATP (Sigma M6517), and the resulting fluorescence is measured with a FLIPR II™ instrument (Molecular Devices). Compounds are tested for their ability to inhibit the agonist-induced fluorescent signal.
For the rat P2X2/3 HEK-TREX cells, induction of the rat P2X3 expression is used to generate the rat P2X2/3 channels in HEK-TREX cells and performed by addition of 1 μg/mL tetracycline (Invitrogen) 24 h prior to compounds testing to the HEK-TREX expressing the rat P2X2 constitutively. On the day of the experiment, the cells and test compounds are prepared as follows. […] After preparing the compounds, the medium is removed from the cell plates by inversion. A loading solution of 30 μL assay buffer containing 4 μM of the calcium indicator dye FLUO-4 AM (Molecular Probes F14202) is added to each well using a Multidrop (Labsystems). […] The incubation is terminated by washing the cells four times in assay buffer using a Skatron Embla (Molecular Devices), and 25 μL of assay buffer was left in each well. Cell plates are then transferred to the FLIPR. Experiments are initiated by measuring a baseline fluorescence reading for 10 seconds, followed by the addition of 12.5 μL of cpds and data sampling for a total 280 seconds. The experiments are terminated by addition of 12.5 μL of a reference agonist (500 nM α,β-methylene-ATP) or buffer, producing a final assay volume of 50 μL followed by data sampling for an additional 280 seconds.
In P2X3 antagonist experiments (human and rat assays) data are analysed as normalised maximal peak fluorescence monitored following agonist addition and calculated as percent of relative fluorescent counts from control agonist. The dose-response antagonist inhibition curves are analyzed in a 4-parameter sigmoidal fit using a non-linear curve-fitting program (XLfit version 5.0.6, ID Business Solutions Limited, Guildford, UK).

In test [2] the target is T2, hP2X3 (human Purinergic P2X receptors subtype 3), clone B (Homo sapiens, UniProt P56373).
T2 sequence (P56373 1-397): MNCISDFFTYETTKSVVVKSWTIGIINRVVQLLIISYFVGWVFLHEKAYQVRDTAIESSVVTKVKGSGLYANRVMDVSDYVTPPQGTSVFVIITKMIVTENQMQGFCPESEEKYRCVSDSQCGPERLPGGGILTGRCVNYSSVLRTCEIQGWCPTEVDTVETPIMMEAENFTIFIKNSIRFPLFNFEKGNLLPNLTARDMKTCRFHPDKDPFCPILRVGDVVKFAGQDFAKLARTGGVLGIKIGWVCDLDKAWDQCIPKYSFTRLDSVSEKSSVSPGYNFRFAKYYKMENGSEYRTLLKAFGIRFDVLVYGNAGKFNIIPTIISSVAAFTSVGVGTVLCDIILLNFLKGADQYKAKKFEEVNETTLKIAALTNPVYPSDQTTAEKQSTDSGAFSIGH
The experiment in a line: hP2X3 FLIPR calcium (Fluo-4) antagonist assay, clone B. As to conditions: Human P2X3 FLIPR Clone B IC50 (nM), RLE cells expressing hP2X3 clone B (NM_002559); agonist 500 nM α,β-methylene-ATP.

Take `CC(=O)N1CCN(c2nc(NCc3cc4ccccc4c(N(C)C)n3)c3c(n2)C(=O)N(C(C)C)C3)CC1` [Example 252, 2-(4-acetylpiperazin-1-yl)-4-((1-(dimethylamino)isoquinolin-3-yl)methylamino)-6-isopropyl-5H-pyrrolo[3,4-d]pyrimidin-7(6H)-one]: the concentration for half-maximal inhibition (IC50) (in general, the point on the concentration scale where inhibition reaches its midpoint) in test [1] amounted to 2110 nM; in test [2], 87 nM.

Regarding `CC(=O)N1CCN(c2nc(N[C@H](C)c3cnc4ccccc4c3)c3c(n2)C(=O)N(C(C)C)C3)CC1` [Example 233, (R)-2-(4-acetylpiperazin-1-yl)-6-isopropyl-4-(1-(quinolin-3-yl)ethylamino)-5H-pyrrolo[3,4-d]pyrimidin-7(6H)-one], the IC50 in test [1] stood at 74.4 nM; in test [2], 21 nM.

As to `CCC(c1ccccc1)C1CCCN1c1nc(N2CCN(C(C)=O)CC2)nc2c1CN(C(C)C)C2=O` (stereo not shown) [Example 275, 4-(4-acetylpiperazin-1-yl)-2-[2-(1-phenylpropyl)pyrrolidin-1-yl]-8-propan-2-yl-3,5,8-triazabicyclo[4.3.0]nona-2,4,10-trien-7-one], the IC50 in test [1] was 10300 nM; in test [2], 760 nM.

`CCC(C)N1Cc2c(NCc3cnc4ccccc4c3)nc(N3CCN(C(C)=O)CC3)nc2C1=O` (single isomer, unassigned; (+)) [Example 308, (+)-2-(4-acetylpiperazin-1-yl)-4-(3-quinolylmethylamino)-6-sec-butyl-5H-pyrrolo[3,4-d]pyrimidin-7-one]: the IC50 in test [1] amounted to 10300 nM; in test [2] it was 20 nM.

For the molecule `CC(=O)N1CCN(c2nc(NCc3nnc(-c4ccccc4)o3)c3c(n2)C(=O)N(C(C)C)C3)CC1` [Example 148, 4-(4-acetylpiperazin-1-yl)-2-[(5-phenyl-1,3,4-oxadiazol-2-yl)methylamino]-8-propan-2-yl-3,5,8-triazabicyclo[4.3.0]nona-1,3,5-trien-7-one], the values for the IC50 in test [1] and in test [2] were 6750 nM and 160 nM, respectively.

`CC(=O)N1CCN(c2nc3c(c(N4CCC[C@@H]4C(=O)OCc4ccccc4)n2)CN(C(C)C)C3=O)CC1` [Example 265, benzyl (2R)-1-[4-(4-acetylpiperazin-1-yl)-7-oxo-8-propan-2-yl-3,5,8-triazabicyclo[4.3.0]nona-1,3,5-trien-2-yl]pyrrolidine-2-carboxylate]: the figures for the half-maximal inhibitory concentration (IC50) in test [1] and in test [2] were 15700 nM and 850 nM, respectively.

In the case of `CC(=O)N1CCN(c2nc(NCc3cncc4ccccc34)c3c(n2)C(=O)N(C(C)C)C3)CC1` [Example 229, 2-(4-acetylpiperazin-1-yl)-6-isopropyl-4-(isoquinolin-4-ylmethylamino)-5H-pyrrolo[3,4-d]pyrimidin-7(6H)-one], the figures for the concentration for half-maximal inhibition (IC50) in test [1] and in test [2] were 14600 nM and 120 nM, respectively.

With `CC(=O)N1CCN(c2nc(N[C@H](C)c3ccc(I)cc3)c3c(n2)C(=O)N(C(C)C)C3)CC1` [Example 165, (R)-2-(4-acetylpiperazin-1-yl)-4-(1-(4-iodophenyl)ethylamino)-6-isopropyl-5H-pyrrolo[3,4-d]pyrimidin-7(6H)-one], the IC50 in test [1] turned out to be 11100 nM; in test [2], 43 nM.

`CC(=O)N1CCN(c2nc3c(c(N4CCCC4c4cnc5ccccc5c4)n2)CN(C(C)C)C3=O)CC1` (single isomer, unassigned) [Example 283, 4-(4-acetylpiperazin-1-yl)-8-propan-2-yl-2-(2-quinolin-3-ylpyrrolidin-1-yl)-3,5,8-triazabicyclo[4.3.0]nona-1,3,5-trien-7-one]: the results for the IC50 in test [1] and in test [2] were 253 nM and 87 nM, respectively.

Take `CC(=O)N1CCN(c2nc(N[C@H](C)c3ccc4c(c3)CCCC4)c3c(n2)C(=O)N(C(C)C)C3)CC1` [Example 166, (R)-2-(4-acetylpiperazin-1-yl)-6-isopropyl-4-(1-(5,6,7,8-tetrahydronaphthalen-2-yl)ethylamino)-5H-pyrrolo[3,4-d]pyrimidin-7(6H)-one]: the IC50 in test [1] was determined as 1900 nM; in test [2] it was 47 nM.

On to `CC(=O)N(C)C1CCN(c2nc(NCc3cnc4ccccc4c3)c3c(n2)C(=O)N(C(C)C)C3)C1` (stereo not shown) [Example 208, N-(1-(6-isopropyl-7-oxo-4-(quinolin-3-ylmethylamino)-6,7-dihydro-5H-pyrrolo[3,4-d]pyrimidin-2-yl)pyrrolidin-3-yl)-N-methylacetamide], for which the IC50 in test [1] turned out to be 17600 nM; in test [2], 680 nM.

With `CCC(C)N1Cc2c(NCc3cnn(-c4ccccc4)c3)nc(N3CCN(C(C)=O)CC3)nc2C1=O` (single isomer, unassigned; (-)) [Example 307, (−)-4-(4-acetylpiperazin-1-yl)-8-butan-2-yl-2-[(1-phenylpyrazol-4-yl)methylamino]-3,5,8-triazabicyclo[4.3.0]nona-1,3,5-trien-7-one], the IC50 turned out to be 12000 nM in test [1] and 150 nM in test [2].

For `CC(=O)N1CCN(c2nc3c(c(N4CCCC4c4ccc5ncccc5c4)n2)CN(C(C)C)C3=O)CC1` (stereo not shown) [Example 281, 4-(4-acetylpiperazin-1-yl)-8-propan-2-yl-2-(2-quinolin-6-ylpyrrolidin-1-yl)-3,5,8-triazabicyclo[4.3.0]nona-1,3,5-trien-7-one], the figures for the IC50 in test [1] and in test [2] were 11400 nM and 140 nM, respectively.

On to `COc1ccc(CC(C)(C)Nc2nc(N3CCN(C(C)=O)CC3)nc3c2CN(C(C)C)C3=O)cc1` [Example 196, 2-(4-acetylpiperazin-1-yl)-6-isopropyl-4-(1-(4-methoxyphenyl)-2-methylpropan-2-ylamino)-5H-pyrrolo[3,4-d]pyrimidin-7(6H)-one], for which the 50% inhibitory concentration (IC50) in test [1] is 2180 nM; in test [2] it was 90 nM.

Consider `CC(=O)N1CCN(c2nc(N[C@@H](C)c3cnc4ccccc4c3)c3c(n2)C(=O)N(C(C)C)C3)CC1` (single isomer, unassigned) [Example 345], for which the IC50 stood at 1910 nM in test [1] and 66 nM in test [2].

For `CC(=O)N1CCN(c2nc3c(c(N(Cc4cc5ccccc5cn4)CC4CC4)n2)CN(C(C)C)C3=O)CC1` [Example 253, 2-(4-acetylpiperazin-1-yl)-4-((cyclopropylmethyl)(isoquinolin-3-ylmethyl)amino)-6-isopropyl-5H-pyrrolo[3,4-d]pyrimidin-7(6H)-one], the IC50 in test [1] is 1110 nM; in test [2], 63 nM.

As to `CC(=O)N1CCN(c2nc(NCc3cc(-c4ccccc4)no3)c3c(n2)C(=O)N(C(C)C)C3)CC1` [Example 147, 4-(4-acetylpiperazin-1-yl)-2-[(3-phenyl-1,2-oxazol-5-yl)methylamino]-8-propan-2-yl-3,5,8-triazabicyclo[4.3.0]nona-1,3,5-trien-7-one], the IC50 turned out to be 1230 nM in test [1] and 41 nM in test [2].

As to `CC(=O)N1CCN(c2nc3c(c(N4CCCC4c4cnc5ccccc5c4)n2)CN(C(C)C)C3=O)CC1` (stereo not shown) [Example 274, 4-(4-acetylpiperazin-1-yl)-8-propan-2-yl-2-(2-quinolin-3-ylpyrrolidin-1-yl)-3,5,8-triazabicyclo[4.3.0]nona-1,3,5-trien-7-one], the IC50 in test [1] came out at 768 nM; in test [2] it was 170 nM.

Turning to `CC(=O)N1CCN(c2nc(NC(C)(C)Cc3ccc(F)cc3)c3c(n2)C(=O)N(C(C)C)C3)CC1` [Example 14, 2-(4-acetylpiperazin-1-yl)-4-{[2-(4-fluorophenyl)-1,1-dimethylethyl]amino}-6-isopropyl-5,6-dihydro-7H-pyrrolo[3,4-d]pyrimidin-7-one], the half-maximal inhibitory concentration (IC50) in test [1] worked out at 18500 nM; in test [2] it was 110 nM.

On to `CC(=O)N1CCN(c2nc(NC(c3ccccc3)c3ccccc3)c3c(n2)C(=O)N(C(C)C)C3)CC1` [Example 72, 2-(4-Acetyl-piperazin-1-yl)-4-(benzhydryl-amino)-6-isopropyl-5,6-dihydro-pyrrolo[3,4-d]pyrimidin-7-one], for which the IC50 in test [1] was determined as 2110 nM.

For the molecule `COc1cc(OC(F)(F)F)ccc1CNc1nc(N2CCN(C(C)=O)CC2)nc2c1CN(C(C)C)C2=O` [Example 232, 2-(4-acetylpiperazin-1-yl)-6-isopropyl-4-(2-methoxy-4-(trifluoromethoxy)benzylamino)-5H-pyrrolo[3,4-d]pyrimidin-7(6H)-one], in test [1], the IC50 turned out to be 7840 nM.

The values above are taken from patent US20090099195A1 (ASTRAZENECA AB, priority 2007, published 2009).
